Experiments:
Assay type in all cases: in vivo
[1] = tested on: barnyardgrass (Echinochloa crus-galli); test: Test G Post-Emergence Protocol; settings: Echinochloa crus-galli, post-emergence, 312 h, read-out: Barnyardgrass damage rating; for pest or weed control at 15.625 g/ha: 15.625 g ai/ha, evaluated after 13 days (100=total damage to plant; 0=no damage to plant); for pest or weed control at 62.5 g/ha: 62.5 g ai/ha; for pest or weed control at 62.5 g/ha / pest or weed control at 250 g/ha: evaluated after 13 days, 100=total damage to plant, 0=no damage to plant; for pest or weed control at 250 g/ha: 250 g ai/ha
Procedure, shortened: (§1)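 Sow in soil; grow 8 d (24/16 °C, 14 h light, 65% humidity); spray 15.625/62.5/250 g/ha in acetone:water 50:50 + 0.5% Tween 20; grow on, water twice daily; score damage 0–100 at 13 d.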

[2] = tested on: giant foxtail (Setaria faberi); test: Test G Post-Emergence Protocol; settings: Setaria faberi, post-emergence, 312 h, read-out: Foxtail, Giant damage rating; for pest or weed control at 15.625 g/ha: 15.625 g ai/ha, evaluated after 13 days (100=total damage to plant; 0=no damage to plant); for pest or weed control at 62.5 g/ha: 62.5 g ai/ha; for pest or weed control at 62.5 g/ha / pest or weed control at 250 g/ha: evaluated after 13 days, 100=total damage to plant, 0=no damage to plant; for pest or weed control at 250 g/ha: 250 g ai/ha
Procedure, shortened: as §1

[3] = tested on: ivy-leaved morning glory (Ipomoea hederacea); test: Test G Post-Emergence Protocol; settings: Ipomoea, post-emergence, 312 h, read-out: Morningglory, Ivy-leaved damage rating; for pest or weed control at 15.625 g/ha: 15.625 g ai/ha, evaluated after 13 days (100=total damage to plant; 0=no damage to plant); for pest or weed control at 62.5 g/ha: 62.5 g ai/ha; for pest or weed control at 62.5 g/ha / pest or weed control at 250 g/ha: evaluated after 13 days, 100=total damage to plant, 0=no damage to plant; for pest or weed control at 250 g/ha: 250 g ai/ha
Procedure, shortened: as §1

corn (Zea mays) [4] = test: Test G Post-Emergence Protocol; settings: Zea mays, post-emergence, 312 h, read-out: Corn damage rating; for plant injury at 15.625 g/ha: 15.625 g ai/ha, evaluated after 13 days (100=total damage to plant; 0=no damage to plant); for plant injury at 62.5 g/ha: 62.5 g ai/ha; for plant injury at 62.5 g/ha / plant injury at 250 g/ha: evaluated after 13 days, 100=total damage to plant, 0=no damage to plant; for plant injury at 250 g/ha: 250 g ai/ha
Procedure, shortened: as §1

[5] = tested on: velvetleaf (Abutilon theophrasti); test: Test G Post-Emergence Protocol; settings: Abutilon theophrasti, post-emergence, 312 h, read-out: Velvetleaf damage rating; for pest or weed control at 15.625 g/ha: 15.625 g ai/ha, evaluated after 13 days (100=total damage to plant; 0=no damage to plant); for pest or weed control at 62.5 g/ha: 62.5 g ai/ha; for pest or weed control at 62.5 g/ha / pest or weed control at 250 g/ha: evaluated after 13 days, 100=total damage to plant, 0=no damage to plant; for pest or weed control at 250 g/ha: 250 g ai/ha
Procedure, shortened: as §1

[6] = tested on: redroot pigweed (Amaranthus retroflexus); test: Test G Post-Emergence Protocol; settings: Amaranthus retroflexus, post-emergence, 312 h, read-out: Pigweed, Redroot damage rating; for pest or weed control at 15.625 g/ha: 15.625 g ai/ha, evaluated after 13 days (100=total damage to plant; 0=no damage to plant); for pest or weed control at 62.5 g/ha: 62.5 g ai/ha; for pest or weed control at 62.5 g/ha / pest or weed control at 250 g/ha: evaluated after 13 days, 100=total damage to plant, 0=no damage to plant; for pest or weed control at 250 g/ha: 250 g ai/ha
Procedure, shortened: as §1

[7] = tested on: barnyardgrass (Echinochloa crus-galli); test: Test G Pre-Emergence Protocol; settings: Echinochloa crus-galli, pre-emergence, 312 h, evaluated after 13 days; for pest or weed control at 15.625 g/ha: 15.625 g ai/ha; for pest or weed control at 15.625 g/ha / pest or weed control at 250 g/ha: read-out: Barnyardgrass damage rating (100=total damage to plant; 0=no damage to plant); for pest or weed control at 62.5 g/ha: 62.5 g ai/ha, 100=total damage to plant, 0=no damage to plant, read-out: Barnyardgrass damage rating; for pest or weed control at 250 g/ha: 250 g ai/ha
Procedure, shortened: (§2)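 Pre-emergence spray, 15.625/62.5/250 g/ha, vehicle acetone:water 50:50 + 0.5% Tween 20, applied 1 d after sowing. Glasshouse 24/16° C, 14 h light, 65% RH, watered twice daily. Visual damage rating at 13 d, 0–100 scale.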

[8] = tested on: giant foxtail (Setaria faberi); test: Test G Pre-Emergence Protocol; settings: Setaria faberi, pre-emergence, 312 h, evaluated after 13 days; for pest or weed control at 15.625 g/ha: 15.625 g ai/ha; for pest or weed control at 15.625 g/ha / pest or weed control at 250 g/ha: read-out: Foxtail, Giant damage rating (100=total damage to plant; 0=no damage to plant); for pest or weed control at 62.5 g/ha: 62.5 g ai/ha, 100=total damage to plant, 0=no damage to plant, read-out: Foxtail, Giant damage rating; for pest or weed control at 250 g/ha: 250 g ai/ha
Procedure, shortened: as §2

[9] = tested on: ivy-leaved morning glory (Ipomoea hederacea); test: Test G Pre-Emergence Protocol; settings: Ipomoea, pre-emergence, 312 h, evaluated after 13 days; for pest or weed control at 15.625 g/ha: 15.625 g ai/ha; for pest or weed control at 15.625 g/ha / pest or weed control at 250 g/ha: read-out: Morningglory, Ivy-leaved damage rating (100=total damage to plant; 0=no damage to plant); for pest or weed control at 62.5 g/ha: 62.5 g ai/ha, 100=total damage to plant, 0=no damage to plant, read-out: Morningglory, Ivy-leaved damage rating; for pest or weed control at 250 g/ha: 250 g ai/ha
Procedure, shortened: as §2

corn (Zea mays) [10] = test: Test G Pre-Emergence Protocol; settings: Zea mays, pre-emergence, 312 h, evaluated after 13 days; for plant injury at 15.625 g/ha: 15.625 g ai/ha; for plant injury at 15.625 g/ha / plant injury at 250 g/ha: read-out: Corn damage rating (100=total damage to plant; 0=no damage to plant); for plant injury at 62.5 g/ha: 62.5 g ai/ha, 100=total damage to plant, 0=no damage to plant, read-out: Corn damage rating; for plant injury at 250 g/ha: 250 g ai/ha
Procedure, shortened: as §2

[11] = tested on: velvetleaf (Abutilon theophrasti); test: Test G Pre-Emergence Protocol; settings: Abutilon theophrasti, pre-emergence, 312 h, evaluated after 13 days; for pest or weed control at 15.625 g/ha: 15.625 g ai/ha; for pest or weed control at 15.625 g/ha / pest or weed control at 250 g/ha: read-out: Velvetleaf damage rating (100=total damage to plant; 0=no damage to plant); for pest or weed control at 62.5 g/ha: 62.5 g ai/ha, 100=total damage to plant, 0=no damage to plant, read-out: Velvetleaf damage rating; for pest or weed control at 250 g/ha: 250 g ai/ha
Procedure, shortened: as §2

[12] = tested on: redroot pigweed (Amaranthus retroflexus); test: Test G Pre-Emergence Protocol; settings: Amaranthus retroflexus, pre-emergence, 312 h, evaluated after 13 days; for pest or weed control at 15.625 g/ha: 15.625 g ai/ha; for pest or weed control at 15.625 g/ha / pest or weed control at 250 g/ha: read-out: Pigweed, Redroot damage rating (100=total damage to plant; 0=no damage to plant); for pest or weed control at 62.5 g/ha: 62.5 g ai/ha, 100=total damage to plant, 0=no damage to plant, read-out: Pigweed, Redroot damage rating; for pest or weed control at 250 g/ha: 250 g ai/ha
Procedure, shortened: as §2

SMILES | pest or weed control at 15.625 g/ha [1] [%] | pest or weed control at 62.5 g/ha [1] [%] | pest or weed control at 250 g/ha [1] [%] | pest or weed control at 15.625 g/ha [2] [%] | pest or weed control at 62.5 g/ha [2] [%] | pest or weed control at 250 g/ha [2] [%] | pest or weed control at 15.625 g/ha [3] [%] | pest or weed control at 62.5 g/ha [3] [%] | pest or weed control at 250 g/ha [3] [%] | plant injury at 15.625 g/ha (corn (Zea mays) [4]) [%] | plant injury at 62.5 g/ha (corn (Zea mays) [4]) [%] | plant injury at 250 g/ha (corn (Zea mays) [4]) [%] | pest or weed control at 15.625 g/ha [5] [%] | pest or weed control at 62.5 g/ha [5] [%] | pest or weed control at 250 g/ha [5] [%] | pest or weed control at 15.625 g/ha [6] [%] | pest or weed control at 62.5 g/ha [6] [%] | pest or weed control at 250 g/ha [6] [%] | pest or weed control at 15.625 g/ha [7] [%] | pest or weed control at 62.5 g/ha [7] [%] | other results
CN1C[C@H](c2cc(C(F)(F)F)cc(C(F)(F)F)c2)[C@@H](C(=O)Nc2ccccc2S(C)(=O)=O)C1=O (racemic) [Compound 1794] | 0 | 40 | 70 | 0 | 60 | 80 | 20 | 50 | 70 | 20 | 50 | 70 | 0 | 0 | 10 | 0 | 40 | 70 | 0 | 40 | pest or weed control at 250 g/ha [7]: 80%; pest or weed control at 15.625 g/ha [8]: 30%; pest or weed control at 62.5 g/ha [8]: 60%; pest or weed control at 250 g/ha [8]: 90%; pest or weed control at 15.625 g/ha [9]: 0%; pest or weed control at 62.5 g/ha [9]: 0%; pest or weed control at 250 g/ha [9]: 10%; plant injury at 15.625 g/ha (corn (Zea mays) [10]): 30%; plant injury at 62.5 g/ha (corn (Zea mays) [10]): 50%; plant injury at 250 g/ha (corn (Zea mays) [10]): 80%; pest or weed control at 15.625 g/ha [11]: 0%; pest or weed control at 62.5 g/ha [11]: 0%; pest or weed control at 250 g/ha [11]: 0%; pest or weed control at 15.625 g/ha [12]: 0%; pest or weed control at 62.5 g/ha [12]: 0%; pest or weed control at 250 g/ha [12]: 80%
CN1C[C@H](c2ccc(C(F)(F)F)cc2)[C@@H](C(=O)Nc2ccc[n+]([O-])c2C(F)(F)F)C1=O (racemic) [Compound 1813] | 0 | 0 | 0 | 0 | 0 | 20 | 0 | 10 | 40 | 0 | 0 | 0 | 0 | 0 | 10 | 0 | 0 | 20 | 0 | 0 | pest or weed control at 250 g/ha [7]: 10%; pest or weed control at 15.625 g/ha [8]: 0%; pest or weed control at 62.5 g/ha [8]: 10%; pest or weed control at 250 g/ha [8]: 90%; pest or weed control at 15.625 g/ha [9]: 0%; pest or weed control at 62.5 g/ha [9]: 0%; pest or weed control at 250 g/ha [9]: 20%; plant injury at 15.625 g/ha (corn (Zea mays) [10]): 0%; plant injury at 62.5 g/ha (corn (Zea mays) [10]): 0%; plant injury at 250 g/ha (corn (Zea mays) [10]): 0%; pest or weed control at 15.625 g/ha [11]: 0%; pest or weed control at 62.5 g/ha [11]: 0%; pest or weed control at 250 g/ha [11]: 30%; pest or weed control at 15.625 g/ha [12]: 0%; pest or weed control at 62.5 g/ha [12]: 0%; pest or weed control at 250 g/ha [12]: 20%

— patent US12077503B2, “Substituted cyclic amides and their use as herbicides” (FMC CORPORATION, priority 2015, dated 2024)
